Tested on: SW 982 tumor spheroid viability
Assay: Anticancer human tumor SW 982 cell line growth inhibition;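 also: spheroids exposed to compound for 7 days before readout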
Conditions: spheroids with HUVEC and MSC; for IC50: curve of first compound; for viability, T/C: stronger effect = lower value
Procedure, shortened: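 Complex tumor spheroids combined malignant cells with endothelial cells and mesenchymal stem cells. DNA-damaging drugs and DNA repair inhibitors were tested alone and in combination, at half-log dilutions down from clinical Cmax (top 10 microM if Cmax unknown), 0.25% DMSO final.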

[1] = second compound 30 pM, first compound 0.0316 µM
[2] = second compound 30 pM, first compound 0.1 µM
[3] = second compound 30 pM, first compound 0.316 µM
[4] = second compound 30 pM, first compound 1 µM
[5] = second compound 30 pM, first compound 3.16 µM
[6] = second compound 30 pM, first compound 10 µM
[7] = second compound 94.9 pM, first compound 0.0316 µM
[8] = second compound 94.9 pM, first compound 0.1 µM
[9] = second compound 94.9 pM, first compound 0.316 µM
[10] = second compound 94.9 pM, first compound 1 µM
[11] = second compound 94.9 pM, first compound 3.16 µM
[12] = second compound 94.9 pM, first compound 10 µM
[13] = second compound 0.0003 µM, first compound 0.0316 µM
[14] = second compound 0.0003 µM, first compound 0.1 µM
[15] = second compound 0.0003 µM, first compound 0.316 µM
[16] = second compound 0.0003 µM, first compound 1 µM
[17] = second compound 0.0003 µM, first compound 3.16 µM
[18] = second compound 0.0003 µM, first compound 10 µM
[19] = second compound 0.000949 µM, first compound 0.0316 µM
[20] = second compound 0.000949 µM, first compound 0.1 µM
[21] = second compound 0.000949 µM, first compound 0.316 µM
[22] = second compound 0.000949 µM, first compound 1 µM
[23] = second compound 0.000949 µM, first compound 3.16 µM
[24] = second compound 0.000949 µM, first compound 10 µM
[25] = second compound 0.003 µM, first compound 0.0316 µM
[26] = second compound 0.003 µM, first compound 0.1 µM
[27] = second compound 0.003 µM, first compound 0.316 µM
[28] = second compound 0.003 µM, first compound 1 µM
[29] = second compound 0.003 µM, first compound 3.16 µM
[30] = second compound 0.003 µM, first compound 10 µM

Row | SMILES | IC50 (second compound 30 pM) | IC50 (second compound 94.9 pM) | IC50 (second compound 0.0003 µM) | IC50 (second compound 0.000949 µM) | IC50 (second compound 0.003 µM) | viability, T/C [1] | viability, T/C [2] | viability, T/C [3] | viability, T/C [4] | viability, T/C [5] | viability, T/C [6] | viability, T/C [7] | viability, T/C [8] | viability, T/C [9] | viability, T/C [10] | viability, T/C [11] | viability, T/C [12] | viability, T/C [13] | viability, T/C [14] | viability, T/C [15] | other results
1 | Cc1cc(C)c(CNC(=O)c2cc(-c3ccc(CN4CCOCC4)cc3)cc3c2cnn3C2CCCC2)c(=O)[nH]1 + COc1cc2c(cc1O)CCNC21CSC2c3c(OC(C)=O)c(C)c4c(c3C(COC1=O)N1C(O)C3Cc5cc(C)c(OC)c(O)c5C(C21)N3C)OCO4 | > 10 µM | > 10 µM | 10 µM | < 0.0316 µM | < 0.0316 µM | 97.9% | 99.7% | 104% | 96.7% | 92% | 66.7% | 95.4% | 106% | 102% | 103% | 88.4% | 57.9% | 74.7% | 76% | 84% | viability, T/C [16]: 80.7%; viability, T/C [17]: 71.5%; viability, T/C [18]: 49.8%; viability, T/C [19]: 35.7%; viability, T/C [20]: 39.9%; viability, T/C [21]: 37.5%; viability, T/C [22]: 36.1%; viability, T/C [23]: 27.6%; viability, T/C [24]: 17.8%; viability, T/C [25]: 0.71%; viability, T/C [26]: 0.36%; viability, T/C [27]: 0.51%; viability, T/C [28]: 0.31%; viability, T/C [29]: 0.29%; viability, T/C [30]: 0.83%
2 | [2H]c1nc(C)nc([2H])c1-c1cc(NC[C@@H](C)c2cccc3c(C(=O)NC)ccnc23)ncn1 + COc1cc2c(cc1O)CCNC21CSC2c3c(OC(C)=O)c(C)c4c(c3C(COC1=O)N1C(O)C3Cc5cc(C)c(OC)c(O)c5C(C21)N3C)OCO4 | > 10 µM | > 10 µM | > 10 µM | < 0.0316 µM | < 0.0316 µM | 91.1% | 100% | 98% | 93.3% | 90.3% | 101% | 95.7% | 90.7% | 98.1% | 93.8% | 89.4% | 91.2% | 87.2% | 83.2% | 79.4% | viability, T/C [16]: 70.3%; viability, T/C [17]: 74.9%; viability, T/C [18]: 75.4%; viability, T/C [19]: 37.3%; viability, T/C [20]: 26.5%; viability, T/C [21]: 44.4%; viability, T/C [22]: 44.1%; viability, T/C [23]: 42.6%; viability, T/C [24]: 21.9%; viability, T/C [25]: 0.62%; viability, T/C [26]: 1.1%; viability, T/C [27]: 1.05%; viability, T/C [28]: 0.69%; viability, T/C [29]: 0.48%; viability, T/C [30]: 0.77%
